Assay results published in patent publication US10617735B2, “Methods and compositions for preserving retinal ganglion cells” (Massachusetts Eye and Ear Infirmary, priority 2010, dated 2020).
Where a SMILES comes first, the peptide text is derived from it. The star is where a group is joined. Cbz = O=C(OCc1ccccc1)*; CH2F = FC*

Legend:
Type in all cases: in vivo, mouse
[1] = system: retinal ganglion cell axons; experiment: Optic nerve crush model: axon regeneration (βIII-tubulin staining of longitudinal optic nerve sections); settings: 14 days, intravitreal ZVAD 300 μM and/or Nec-1 4 mM
Protocol: Mice were subjected to optic nerve crush surgery. Specifically, animals were anesthetized with an intraperitoneal injection of ketamine (60-80 mg/kg: Phoenix Pharmaceutical, St. Joseph, Mo.) and xylazine (10-15 mg/kg: Bayer, Shawnee Mission, K A). Animals were positioned in a stereotaxic apparatus and a 1-1.5 cm incision was made in the skin above the right orbit. Under microscopic illumination, the lachrymal glands and extraocular muscles were resected to expose 3-4 mm of the optic nerve. The epineurium was slit open along the long axis, and the nerve was crushed 2 mm behind the eye with angled jeweler's forceps (Dumont #5) for 10 seconds, avoiding injury to the ophthalmic artery. Nerve injury was verified by the appearance of a clearing at the crush site, while the vascular integrity of the retina was evaluated by fundoscopic examination. Cases in which the vascular integrity of the retina was in question were excluded from the study. […]
Axon regeneration was assessed by obtaining longitudinal sections of the optic nerve and counting the number of axons at pre-specified distances from the injury site. […] Axons were counted manually in at least eight longitudinal sections per case at pre-specified distances from the injury site. The number of regenerating axons at various distances are determined as described previously (Leon et al., (2000) J NEUROSCI 20:4615-4626). […]

[2] = system: retinal ganglion cells (RGCs); experiment: TUNEL staining after ON injury
Text: Two mouse models of RGC death were utilized: optic nerve (ON) injury and N-methyl-D-aspartate (NMDA) retinal excitotoxicity. ON injury leads to RGC death as a result of primary damage to the axons, with its ensuing disruption of retrograde axonal transport (Libby et al., (2005) PLOS GENET 1:17-26) and is used as an RGC death model. In the ON injury model, mice were anesthetized and subjected to severe crush injury at 1-2 mm distance from the eyeball for 15 seconds using cross-action forceps taking special care not to interfere with the blood supply (Levkovitch-Verbin, (2004) EYE 18:1066-1074). […] Soon after injury, each group received an intravitreal injection (2 μl) with the respective compounds. In the NMDA retinal excitotoxicity model, NMDA (2 μl of a 0.1M stock; Sigma-Aldrich) was injected intravitreously in combination with ZVAD, Nec-1, or ZVAD plus Nec-1 and mice were separated into the aforementioned 4 groups. The dose of these compounds was selected based on previous studies (Karl et al., (2008) PROC NATL ACAD SCI USA 105:19508-19513; Knoferle et al., (2010) PROC NATL ACAD SCI USA 107:6064-6069; Nakazawa et al., (2006) J NEUROSCI 26:12633-12641; Rosenbaum et al., (2010) J NEUROSCI RES 88:1569-1576).
Intravitreal injections were performed as follows. Briefly, the tip of a 33 gauge needle (Hamilton, Reno, Nev.) was carefully inserted through the sclera into the intravitreal space to reduce intraocular pressure. Then, the needle was extracted, loaded with compounds and tangentially reinserted through the sclera into the intravitreal space, inducing a self-sealing wound tunnel. After injection, the absence of choroidal bleeding was confirmed. At specified times after injury, mice were sacrificed with an overdose of sodium pentobarbital, and eyes were enucleated.

ROS = experiment: Protein carbonyl contents in retina after ON injury (ELISA); settings: one day after ON injury; compared with vehicle group
Protocol: It has been reported that RIP kinases control ROS generation during programmed necrosis (Cho et. al., (2009) CELL 137:1112-1123, Zhang et al., (2009) SCIENCE 325:332-336)). To investigate whether ROS play a roll in oxidative retinal damage after ON injury, protein level of carbonyl contents was analyzed using ELISA using the OxiSelect™ Protein Carbonyl ELISA Kit (Cell Biolabs, San Diego, Calif.).
To investigate the role of autophagy in RGC death after ON injury, we examined the effect of 3-methyladenine (3-MA) on RGCs death after ON injury. 3-MA inhibits autophagosome formation (Seglen and Gordon, (1982) PROC NATL ACAD SCI USA 79:1889-1892)). One day after ON injury, TUNEL assay was performed. […] In addition, the number of Brn3b positive cells and IPL thickness were also analyzed. […] To investigate whether ROS play a role in oxidative retinal damage after ON injury, protein level of carbonyl contents was analyzed using an ELISA kit (Cell Biolabs, San Diego, Calif.) according to the manufacturer's instructions. One day after ON injury, carbonyl contents decreased in the 3-MA treated group compared with untreated control (FIG. 10F).

COC(=O)CC(NC(=O)C(C)NC(=O)C(NC(=O)OCc1ccccc1)C(C)C)C(=O)CF (stereo not drawn) [Z-VAD, Benzyloxycarbonyl-Val-Ala-Asp(OMe)-fluoromethylketone] (Cbz-Val-Ala-Asp(OMe)-CH2F; configuration not given here)
axon regeneration (βIII-tubulin axon staining beyond injury site) [1]: minimal effects on axon regeneration | TUNEL positive cells ([2]; RIP3−/− mice, one day after ON injury): marked decrease in TUNEL positive cells | TUNEL positive cells (apoptotic RGCs) ([2]; wild-type mice, day one after ON injury, intravitreal Z-VAD (300 uM) and/or Nec-1 (400 uM)): failed to rescue RGCs | carbonyl contents (protein level, ELISA) (ROS): dramatically increased
